Measured values taken from patent US9096841B2, “Preparation of beta-amino acids” (BASF SE, priority 2009, dated 2015).

Experiments:
[1] = test system: hydantoinase (obtained from Sigma); test: Hydantoinase catalysed hydrolysis of racemic 6-PDHU and reverse cyclisation, chiral reverse-phase HPLC; type: biochemical, Vigna angularis; settings: for cyclisation of N-carbamoyl-β-phenylalanine (reverse reaction): with hydantoinase
Method: Unless otherwise stated all experiments were carried out on a 5 mM scale of 6-PDHU (4.75 mg) in 5 mL tris buffer (0.1 M pH 7.5) with 1U of commercially available hydantoinase from Vigna angularis (35 mg, obtained from Sigma, St. Louis, USA) in 15 mL Falcon tubes, incubated in a thermomixer (Falcon) at 750 rpm and a temperature of 50° C.
For chiral rpHPLC the following column, buffer and running conditions were used: • Astec Chirobiotic™ T 25 cm×4.6 mm, 5 μm (Sigma-Aldrich, St. Louis, USA) Ammonium Acetate buffer (pH 5.5):Methanol, 70:30, 25° C., 0.5 mL/min
Initially the hydantoinase (obtained form Sigma, St. Louis, USA) catalysed hydrolysis of (±)-6-PDHU (racemic 6-phenyldihydrouracil) (4a in FIG. 2: R=Ph) was studied as a model system. Reactions were carried out at a substrate concentration of 5 mM in Tris buffer [pH 7.5] and monitored by reverse-phase chiral HPLC as described in Example 7, which allowed simultaneous determination of both the extent of conversion in the reaction and also the enantiomeric excess of unreacted dihydrouracil 4a and the N-carbamoyl derivative 5 (FIG. 4, cf. also Scheme 2). […] All reactions gave an equilibrium concentration of 6-PDHU:(S)-NCBPA=51:49. The enantiomeric excess of (S)-NCBPA exceeded 96% during the whole observation period.

[2] = test system: D-hydantoinase (Sigma); test: Substrate specificity of Vigna angularis hydantoinase; type: biochemical; settings: Tris buffer pH 7.5, 0.1 M; D-hydantoinase 7 g/L; substrate 5 mM
Method: Various substrates were synthesized as described in Example 4 and subjected to hydantoinase catalyzed conversion [Tris buffer (pH 7.5, 0.1 M, 1.0 mL), D-hydantoinase, (Sigma, 7 g/L), substrate (5 mM solutions predissolved in buffer unless aromatic substituent (4a, 4b, 4c), in which case substrate is dissolved in 100 microlitres DMSO and added to 900 microlitres of buffer)]. The reaction is shown in FIG. 10, the results are shown in Table 4, wherein the E-value is defined as follows: E value=(ln(1−[product](1+ee)))/(ln(1−[product]*(1−ee)))

[3] = test system: hydantoinase obtained from Sigma; test: Specific activity of commercially available hydantoinase (Sigma) towards substrates, HPLC; type: biochemical, Vigna angularis; settings: Enzyme from Sigma; 5 mM substrate, 50 mM Tris HCl pH 7.5, 30 min, 40° C.
Method: (§1) To determine and compare the specific activity of the Sigma enzyme and the purified hydantoinase (BP) 5 mM of hydantoin, 5-phenylhydantoin or 6-phenyldihydrouracil, respectively, in 50 mM Tris HCl pH 7.5 were incubated with different amounts of enzyme for 30 min at 40° C. The reaction was stopped by adding conc. HCl and then measured by HPLC.

[4] = test system: hydantoinase isolated in Example 2; test: Specific activity of the hydantoinase isolated in Example 2 towards substrates, HPLC; type: biochemical, Vigna angularis; settings: Enzyme from Example 2; 5 mM substrate, 50 mM Tris HCl pH 7.5, 30 min, 40° C.
Method: as §1

[5] = pH dependency of chemical hydrolysis of 6-PDHU in Tris buffer without enzyme; type: physicochemical; settings: 24 hours, no enzyme
Method: 6-PDHU was incubated at 50° C. for 24 hours in Tris buffer at different pH values. Appreciable background hydrolysis of 6-PDHU occurred with a strong pH and buffer dependency. In Tris buffer at pH 7, a background hydrolysis of 0.5% was observed. At pH 9, the background hydrolysis amounted to ca. 20% (FIG. 7).

[6] = test system: D-hydantoinase from Sigma; test: pH/buffer dependency of hydantoinase conversion of 6-PDHU; type: biochemical, Vigna angularis; settings: 22 hours
Method: 6-PDHU was incubated in phosphate buffer (0.1 M, potassium dihydrogen phosphate and dipotassium hydrogen phosphate, volumes adjusted to the appropriate pH) or Tris buffer at various pH values for (up to 8h, using 7 g/L D-hydantoinase from Sigma). […] In an additional experiment conversion rates were determined for phosphate or Tris buffers at various pH values over time. 5 mM 6-PHDU was incubated in phosphate buffer (pH 6.0, 7.0, 7.5, 8.0) and Tris buffer (pH 7.5) buffers for 22 hours. The results are shown in FIG. 9 (wherein diamonds, squares, triangles and crosses represent phosphate buffer at pH 6, pH 7, pH 7.5 or pH 8, respectively, and dots represents Tris buffer at pH 7.5) and Table 3 (ee=enantiomeric excess [%]).

[7] = test system: Pseudomonas putida IFO 12996; settings: hydrolysis using Pseudomonas putida IFO 12996, JP06261787; cited from earlier work

**Q.** Which “cyclisation of N-carbamoyl-β-phenylalanine (reverse reaction)” value [1] does the source give for `NC(=O)NC(CC(=O)O)c1ccccc1` (racemic) [N-carbamoyl-β-phenylalanine, (±)—N-carbamoyl-β-phenylalanine] here?
**A.** The value was “highly (S)-selective”.

**Q.** For `CC1CNC(=O)NC1=O` (stereo not shown) [Substrate 8, 5-methyldihydrouracil], which “Relative rate of enzymatic hydrolysis” value [2] is on record?
**A.** Its value is 23.

**Q.** With `NC(=O)N[C@@H](CC(=O)O)c1ccccc1` [(S)-NCBPA, (S)-N-carbamoyl-β-pheynylalanine] as the molecule, how does the “enantiomeric excess of (S)-NCBPA” value ([1]; during the whole observation period) read?
**A.** The value was “exceeded 96%”.

**Q.** With `O=C1CC(c2ccc(Cl)cc2)NC(=O)N1` (stereo not shown) [Substrate 4c, 6-(4-chloro-phenyl)-dihydrouracil] as the molecule, how does the E value [2] read?
**A.** The E value was greater than 100.

**Q.** And the “Relative rate of enzymatic hydrolysis” value [2]?
**A.** The value was 41.

**Q.** What does the source list for `O=C1NC(=O)C(c2ccccc2)N1` (stereo not shown) [5-Phenylhydantoin, 5-phenylhydantoin]?
**A.** specific activity [3]: 261; specific activity [4]: 557

**Q.** For `O=C1CNC(=O)N1` [Hydantoin, hydantoin], which specific activity [3] is on record?
**A.** Its specific activity is 217.

**Q.** And the specific activity [4]?
**A.** The specific activity was 425.

**Q.** Which results are given for `O=C1CC(c2ccccc2)NC(=O)N1` (racemic) [Substrate 4a, (±)-6-phenyldihydrouracil]?
**A.** specific activity [3]: 6; specific activity [4]: 72; E value ([1]; selective for the (S)-enantiomer, 5 mM substrate, Tris buffer pH 7.5): > 100; background hydrolysis ([5]; Tris buffer pH 7, 50° C.): 0.5%; background hydrolysis ([5]; Tris buffer pH 9, 50° C.): ca. 20%; ee (enantiomeric excess) ([6]; Phosphate buffer pH 6.00, 5 mM): >99.90%; ee (enantiomeric excess) ([6]; Phosphate buffer pH 7.00, 5 mM): >99.90%; ee (enantiomeric excess) ([6]; Phosphate buffer pH 7.50, 5 mM): 96.62%; ee (enantiomeric excess) ([6]; Phosphate buffer pH 8.00, 5 mM): 92.73%; ee (enantiomeric excess) ([6]; Tris buffer pH 7.50, 5 mM): >99.90%; E value [2]: >200; Relative rate of enzymatic hydrolysis [2]: 7; enantiomeric excess [7]: up to 51%

**Q.** With `O=C1CCNC(=O)N1` [Substrate 4e, dihydrouracil] as the molecule, how does the “Relative rate of enzymatic hydrolysis” value [2] read?
**A.** The value was 100.

**Q.** With `NC(=O)N[C@H](CC(=O)O)c1ccccc1` [(R)-NCBPA, (R)—N-carbamoyl-β-phenylalanine] as the molecule, how does the “cyclisation of N-carbamoyl-β-phenylalanine (reverse reaction)” value [1] read?
**A.** The value was “no appreciable cyclisation”.

**Q.** With `CC1CC(=O)NC(=O)N1` (stereo not shown) [Substrate 4h, 6-methyldihydrouracil] as the molecule, how does the E value [2] read?
**A.** The E value was 5.

**Q.** What about the “Relative rate of enzymatic hydrolysis” value [2] of the same molecule?
**A.** Its value is 52.

**Q.** With `O=C1CC(c2ccc(F)cc2)NC(=O)N1` (stereo not shown) [Substrate 4b, 6-(4-fluoro-phenyl)-dihydrouracil] as the molecule, how does the E value [2] read?
**A.** Its E value is greater than 100.

**Q.** And the “Relative rate of enzymatic hydrolysis” value [2]?
**A.** The value was 15.
